pEC50: −log10 of the molar value. Where two headings read alike, the source gives them in different places.
Test system: NL-RLuc virus
Assay: Inhibition of HIV replication (NL-RLuc reporter virus in MT-2 cells, luciferase readout)
Assay type: cell-based
Settings: Human immunodeficiency virus 1, MT2, 120 h; for pEC50: read-out: Activity; for EC50: read-out: EC50 μM
How it was run: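 Antiviral EC50 came from luciferase signal after 5-day multicycle replication of NL-RLuc virus in MT-2 cells with serially diluted compound (RPMI 1640, 10% heat-inactivated FBS), fitted by the median effect equation over at least 2 experiments.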

| Compound | pEC50 | EC50 [µM] |
| --- | --- | --- |
| Cc1nc(C)c([C@H](OC(C)(C)C)C(=O)O)c(N2CCC(C)(C)CC2)c1-c1ccc2c(c1)CCN(Cc1c(F)cccc1Oc1ccccc1)C2 [Compound 159, (S)-2-(tert-butoxy)-2-(4-(4,4-dimethylpiperidin-1-yl)-5-(2-(2-fluoro-6-phenoxybenzyl)-1,2,3,4-tetrahydroisoquinolin-6-yl)-2,6-dimethylpyridin-3-yl)acetic acid] | > 7.00 |  |
| Cc1ccc(CN2CCc3cc(-c4c(C)nc(C)c([C@H](OC(C)(C)C)C(=O)O)c4N4CCC(C)(C)CC4)ccc3C2)cc1C(F)(F)F [Compound 16, (S)-2-(tert-butoxy)-2-(4-(4,4-dimethylpiperidin-1-yl)-2,6-dimethyl-5-(2-(4-methyl-3-(trifluoromethyl)benzyl)-1,2,3,4-tetrahydroisoquinolin-6-yl)pyridin-3-yl)acetic acid] | > 7.00 |  |
| Cc1ccccc1CN1CCc2cc(-c3cnc(C)c([C@H](OC(C)(C)C)C(=O)O)c3N3CCC(C)(C)CC3)ccc2C1 [Compound 165, (S)-2-(tert-Butoxy)-2-(4-(4,4-dimethylpiperidin-1-yl)-2-methyl-5-(2-(2-methylbenzyl)-1,2,3,4-tetrahydroisoquinolin-6-yl)pyridin-3-yl)acetic acid] | > 7.00 |  |
| Cc1nc(C)c([C@H](OC(C)(C)C)C(=O)O)c(N2CCC(C)(C)CC2)c1-c1ccc2c(c1)CCN(Cc1cccc(C(F)(F)F)c1F)C2 [Compound 32, (S)-2-(tert-butoxy)-2-(4-(4,4-dimethylpiperidin-1-yl)-5-(2-(2-fluoro-3-(trifluoromethyl)benzyl)-1,2,3,4-tetrahydroisoquinolin-6-yl)-2,6-dimethylpyridin-3-yl)acetic acid] | > 7.00 |  |
| Cc1nc(C)c([C@H](OC(C)(C)C)C(=O)O)c(N2CCC(C)(C)CC2)c1-c1ccc2c(c1)CCN(Cc1ccccc1OC(F)F)C2 [Compound 114, (S)-2-(tert-butoxy)-2-(5-(2-(2-(difluoromethoxy)benzyl)-1,2,3,4-tetrahydroisoquinolin-6-yl)-4-(4,4-dimethylpiperidin-1-yl)-2,6-dimethylpyridin-3-yl)acetic acid] | > 7.00 |  |
| Cc1nc(C)c([C@H](OC(C)(C)C)C(=O)O)c(N2CCC(C)(C)CC2)c1-c1ccc2c(c1)CCN(Cc1ccc(F)c(F)c1F)C2 [Compound 41, (S)-2-(tert-butoxy)-2-(4-(4,4-dimethylpiperidin-1-yl)-2,6-dimethyl-5-(2-(2,3,4-trifluorobenzyl)-1,2,3,4-tetrahydroisoquinolin-6-yl)pyridin-3-yl)acetic acid] | > 7.00 |  |
| Cc1nc(C)c([C@H](OC(C)(C)C)C(=O)O)c(N2CCC(C)(C)CC2)c1-c1ccc2c(c1)CCN(Cc1ccc(OC(F)(F)F)c(F)c1)C2 [Compound 108, (S)-2-(tert-butoxy)-2-(4-(4,4-dimethylpiperidin-1-yl)-5-(2-(3-fluoro-4-(trifluoromethoxy)benzyl)-1,2,3,4-tetrahydroisoquinolin-6-yl)-2,6-dimethylpyridin-3-yl)acetic acid] | > 7.00 |  |
| Cc1nc(C)c([C@H](OC(C)(C)C)C(=O)O)c(N2CCC(C)(C)CC2)c1-c1ccc2c(c1)CCN(Cc1c(F)cc(Cl)cc1F)C2 [Compound 135, (S)-2-(tert-butoxy)-2-(5-(2-(4-chloro-2,6-difluorobenzyl)-1,2,3,4-tetrahydroisoquinolin-6-yl)-4-(4,4-dimethylpiperidin-1-yl)-2,6-dimethylpyridin-3-yl)acetic acid] | > 7.00 |  |
| COc1ccc(CN2CCc3cc(-c4c(C)nc(C)c([C@H](OC(C)(C)C)C(=O)O)c4N4CCC(C)(C)CC4)ccc3C2)cc1C [Compound 141, (S)-2-(tert-butoxy)-2-(4-(4,4-dimethylpiperidin-1-yl)-5-(2-(4-methoxy-3-methylbenzyl)-1,2,3,4-tetrahydroisoquinolin-6-yl)-2,6-dimethylpyridin-3-yl)acetic acid] | > 7.00 |  |
| COc1cccc(CN2CCc3cc(-c4c(C)nc(C)c([C@H](OC(C)(C)C)C(=O)O)c4N4CCC(C)(C)CC4)ccc3C2)c1Cl [Compound 129, (S)-2-(tert-butoxy)-2-(5-(2-(2-chloro-3-methoxybenzyl)-1,2,3,4-tetrahydroisoquinolin-6-yl)-4-(4,4-dimethylpiperidin-1-yl)-2,6-dimethylpyridin-3-yl)acetic acid] | > 7.00 | 0.003 |
| Cc1cc(CN2CCc3cc(-c4c(C)nc(C)c([C@H](OC(C)(C)C)C(=O)O)c4N4CCC(C)(C)CC4)ccc3C2)ccc1F [Compound 71, (S)-2-(tert-butoxy)-2-(4-(4,4-dimethylpiperidin-1-yl)-5-(2-(4-fluoro-3-methylbenzyl)-1,2,3,4-tetrahydroisoquinolin-6-yl)-2,6-dimethylpyridin-3-yl)acetic acid] | > 7.00 |  |
| COc1cccc(Cl)c1CN1CCc2cc(-c3c(C)nc(C)c([C@H](OC(C)(C)C)C(=O)O)c3N3CCC(C)(C)CC3)ccc2C1 [Compound 145, (S)-2-(tert-butoxy)-2-(5-(2-(2-chloro-6-methoxybenzyl)-1,2,3,4-tetrahydroisoquinolin-6-yl)-4-(4,4-dimethylpiperidin-1-yl)-2,6-dimethylpyridin-3-yl)acetic acid] | > 7.00 |  |
| Cc1nc(C)c([C@H](OC(C)(C)C)C(=O)O)c(N2CCC(C)(C)CC2)c1-c1ccc2c(c1)CCN(Cc1cccc(C(F)(F)F)c1C)C2 [Compound 15, (S)-2-(tert-butoxy)-2-(4-(4,4-dimethylpiperidin-1-yl)-2,6-dimethyl-5-(2-(2-methyl-3-(trifluoromethyl)benzyl)-1,2,3,4-tetrahydroisoquinolin-6-yl)pyridin-3-yl)acetic acid] | > 7.00 |  |
| COc1ccc(CN2CCc3cc(-c4c(C)nc(C)c([C@H](OC(C)(C)C)C(=O)O)c4N4CCC(C)(C)CC4)ccc3C2)cc1C(C)C [Compound 143, (S)-2-(tert-butoxy)-2-(4-(4,4-dimethylpiperidin-1-yl)-5-(2-(3-isopropyl-4-methoxybenzyl)-1,2,3,4-tetrahydroisoquinolin-6-yl)-2,6-dimethylpyridin-3-yl)acetic acid] | > 7.00 |  |
| Cc1nc(C)c([C@H](OC(C)(C)C)C(=O)O)c(N2CCC(C)(C)CC2)c1-c1ccc2c(c1)CCN(Cc1ccc(OC(C)C)cc1)C2 [Compound 150, (S)-2-(tert-butoxy)-2-(4-(4,4-dimethylpiperidin-1-yl)-5-(2-(4-isopropoxybenzyl)-1,2,3,4-tetrahydroisoquinolin-6-yl)-2,6-dimethylpyridin-3-yl)acetic acid] | > 7.00 | 0.021 |
| Cc1nc(C)c([C@H](OC(C)(C)C)C(=O)O)c(N2CCC(C)(C)CC2)c1-c1ccc2c(c1)CCN(C(C)c1ccccc1)C2 (stereo partly drawn) [Compound 13, (2S)-2-(tert-butoxy)-2-(4-(4,4-dimethylpiperidin-1-yl)-2,6-dimethyl-5-(2-(1-phenylethyl)-1,2,3,4-tetrahydroisoquinolin-6-yl)pyridin-3-yl)acetic acid] | > 7.00 |  |
| Cc1nc(C)c([C@H](OC(C)(C)C)C(=O)O)c(N2CCC(C)(C)CC2)c1-c1ccc2c(c1)CCN(Cc1cccc(-c3ccccc3)c1)C2 [Compound 11, (S)-2-(5-(2-([1,1′-biphenyl]-3-ylmethyl)-1,2,3,4-tetrahydroisoquinolin-6-yl)-4-(4,4-dimethylpiperidin-1-yl)-2,6-dimethylpyridin-3-yl)-2-(tert-butoxy)acetic acid] | > 7.00 |  |
| Cc1nc(C)c([C@H](OC(C)(C)C)C(=O)O)c(N2CCC(C)(C)CC2)c1-c1ccc2c(c1)CCN(Cc1cccc(C(C)C)c1)C2 [Compound 36, (S)-2-(tert-butoxy)-2-(4-(4,4-dimethylpiperidin-1-yl)-5-(2-(3-isopropylbenzyl)-1,2,3,4-tetrahydroisoquinolin-6-yl)-2,6-dimethylpyridin-3-yl)acetic acid] | > 7.00 |  |
| Cc1nc(C)c([C@H](OC(C)(C)C)C(=O)O)c(N2CCC(C)(C)CC2)c1-c1ccc2c(c1)CCN(Cc1ccc(F)c(F)c1)C2 [Compound 37, (S)-2-(tert-butoxy)-2-(5-(2-(3,4-difluorobenzyl)-1,2,3,4-tetrahydroisoquinolin-6-yl)-4-(4,4-dimethylpiperidin-1-yl)-2,6-dimethylpyridin-3-yl)acetic acid] | > 7.00 |  |
| Cc1nc(C)c([C@H](OC(C)(C)C)C(=O)O)c(N2CCC(C)(C)CC2)c1-c1ccc2c(c1)CCN(Cc1ccc(F)cc1F)C2 [Compound 20, (S)-2-(tert-butoxy)-2-(5-(2-(2,4-difluorobenzyl)-1,2,3,4-tetrahydroisoquinolin-6-yl)-4-(4,4-dimethylpiperidin-1-yl)-2,6-dimethylpyridin-3-yl)acetic acid] | > 7.00 |  |
| Cc1cccc(Cl)c1CN1CCc2cc(-c3cnc(C)c([C@H](OC(C)(C)C)C(=O)O)c3N3CCC(C)(C)CC3)ccc2C1 [Compound 164, (S)-2-(tert-Butoxy)-2-(5-(2-(2-chloro-6-methylbenzyl)-1,2,3,4-tetrahydroisoquinolin-6-yl)-4-(4,4-dimethylpiperidin-1-yl)-2-methylpyridin-3-yl)acetic acid] | > 7.00 | 0.003 |
| COc1ccc(CN2CCc3cc(-c4c(C)nc(C)c([C@H](OC(C)(C)C)C(=O)O)c4N4CCC(C)(C)CC4)ccc3C2)c(Cl)c1Cl [Compound 91, (S)-2-(tert-butoxy)-2-(5-(2-(2,3-dichloro-4-methoxybenzyl)-1,2,3,4-tetrahydroisoquinolin-6-yl)-4-(4,4-dimethylpiperidin-1-yl)-2,6-dimethylpyridin-3-yl)acetic acid] | > 7.00 |  |
| Cc1cccc(CN2CCc3cc(-c4c(C)nc(C)c([C@H](OC(C)(C)C)C(=O)O)c4N4CCC(C)(C)CC4)ccc3C2)c1C [Compound 80, (S)-2-(tert-butoxy)-2-(5-(2-(2,3-dimethylbenzyl)-1,2,3,4-tetrahydroisoquinolin-6-yl)-4-(4,4-dimethylpiperidin-1-yl)-2,6-dimethylpyridin-3-yl)acetic acid] | > 7.00 | 0.003 |
| Cc1nc(C)c([C@H](OC(C)(C)C)C(=O)O)c(N2CCC(C)(C)CC2)c1-c1ccc2c(c1)CCN(Cc1ccc(F)cc1)C2 [Compound 1, (S)-2-(tert-butoxy)-2-(4-(4,4-dimethylpiperidin-1-yl)-5-(2-(4-fluorobenzyl)-1,2,3,4-tetrahydroisoquinolin-6-yl)-2,6-dimethylpyridin-3-yl)acetic acid] | > 7.00 | 0.006 |

Reference: US10189816B2, “Substituted pyridines as inhibitors of human immunodeficiency virus replication” (priority 2015, dated 2019)
